Results reported in the Kinase Knowledgebase extract (Sharma et al. 2016).

Target: MAPK14 (human) (UniProt Q16539)
Assay: Inhibition of MAPK14 Kinase Activity

MAPK14 (human), sequence (Q16539 whole entry, looked up): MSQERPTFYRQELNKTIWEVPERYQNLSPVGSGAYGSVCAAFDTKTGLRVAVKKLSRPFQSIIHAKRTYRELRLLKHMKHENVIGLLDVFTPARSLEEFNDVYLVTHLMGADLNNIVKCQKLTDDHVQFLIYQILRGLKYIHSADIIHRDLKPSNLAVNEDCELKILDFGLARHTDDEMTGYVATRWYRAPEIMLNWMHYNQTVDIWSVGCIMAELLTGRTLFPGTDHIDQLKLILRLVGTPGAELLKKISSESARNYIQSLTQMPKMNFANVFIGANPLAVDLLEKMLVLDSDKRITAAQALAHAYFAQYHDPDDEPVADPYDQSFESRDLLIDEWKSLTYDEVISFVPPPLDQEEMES

IC50, < 2000 nM:
Cc1cc(C(=O)c2c(NC(=O)N[C@@H]3CCNC3)sc3c2ccc(=O)n3-c2ccccc2)ccc1F
CC(C)(CO)NC(=O)Nc1sc2c(ccc(=O)n2CC2CC2)c1C(=O)c1ccccc1
Nc1sc2c(ccc(=O)n2-c2ccccc2)c1C(=O)c1ccccc1C(F)(F)F
O=C(c1ccccc1)c1c(N[C@@H]2CCCNC2)sc2c1ccc(=O)n2-c1ccccc1
COc1cccc(C(=O)c2c(NC3CCN(C)CC3)sc3c2ccc(=O)n3-c2ccccc2)c1
CC(=O)Nc1sc2c(ccc(=O)n2-c2ccccc2)c1C(=O)c1ccccc1F
Cc1cc(C(=O)c2c(N)sc3c2ccc(=O)n3-c2ccccc2)ccc1F
O=C(c1ccccc1)c1c([N+](=O)[O-])sc2c1ccc(=O)n2-c1ccccc1
CC(=O)Nc1sc2c(ccc(=O)n2-c2ccccc2Cl)c1C(=O)c1ccccc1
NC(=O)CNc1sc2c(ccc(=O)n2-c2ccccc2)c1C(=O)c1ccccc1
Cc1ccc(-n2c(=O)ccc3c(C(=O)c4ccccc4)c(NC4CN(C)C4)sc32)cc1
CN(C)C(=O)Nc1sc2c(ccc(=O)n2-c2ccccc2)c1C(=O)c1ccccc1
O=C(O)c1sc2c(ccc(=O)n2-c2ccccc2)c1C(=O)c1ccccc1
CCN1CCC(Nc2sc3c(ccc(=O)n3-c3ccccc3)c2C(=O)c2ccccc2)CC1
CN1CCC(Nc2sc3c(ccc(=O)n3-c3ccccc3)c2C(=O)c2ccc(F)c(Cl)c2)CC1
Cc1cc(C(=O)c2c(NC(=O)N3CCN(C)CC3)sc3c2ccc(=O)n3-c2ccccc2)ccc1F
CC(=O)Nc1sc2c(ccc(=O)n2CC2CC2)c1C(=O)c1ccccc1
Cc1cc(C(=O)c2c(N[C@@H]3CCNC3)sc3c2ccc(=O)n3-c2ccccc2)ccc1F
Nc1sc2c(ccc(=O)n2-c2ccccc2)c1C(=O)c1ccccn1
Nc1sc2c(ccc(=O)n2-c2ccccc2)c1C(=O)c1cccc(F)c1
CC(C)(C)OC(=O)Nc1sc2c(ccc(=O)n2-c2ccccc2)c1C(=O)c1ccccc1
CN(C)[C@@H]1CCN(C(=O)Nc2sc3c(ccc(=O)n3-c3ccccc3)c2C(=O)c2ccccc2)C1
Cc1cccc(C(=O)c2c(C#N)sc3c2ccc(=O)n3-c2ccccc2)c1
Cc1cc(C(=O)c2c(NC3CCN(C)CC3)sc3c2ccc(=O)n3-c2ccc(F)cc2)ccc1F
O=C(Nc1sc2c(ccc(=O)n2-c2ccccc2)c1C(=O)c1ccccc1)N[C@H]1CCNC1
Cc1cccc(C(=O)c2c(N)sc3c2ccc(=O)n3-c2ccccc2Cl)c1
CC(C)N[C@H]1CCN(C(=O)Nc2sc3c(ccc(=O)n3-c3ccccc3)c2C(=O)c2ccccc2)C1
CNC(=O)c1sc2c(ccc(=O)n2-c2ccccc2)c1C(=O)c1ccccc1
Cc1cccc(C(=O)c2c(NC(=O)N3CCC[C@@H]3CO)sc3c2ccc(=O)n3-c2ccccc2)c1
Cc1cccc(C(=O)c2c(NC(=O)N3CCC3)sc3c2ccc(=O)n3-c2ccccc2)c1
CC(=O)Nc1sc2c(ccc(=O)n2-c2ccccc2)c1C(=O)c1cccc(OC(F)(F)F)c1
CC(=O)Nc1sc2c(ccc(=O)n2-c2ccccc2)c1C(=O)c1ccc(F)cc1
O=C(c1ccccc1)c1c(NC(=O)[C@H]2CCCN2)sc2c1ccc(=O)n2-c1ccccc1
O=C(c1ccccc1)c1c(NC(=O)[C@@H]2CCCN2)sc2c1ccc(=O)n2-c1ccccc1
Cc1cc(C(=O)c2c(NC(=O)N[C@@H]3CCN(C)C3)sc3c2ccc(=O)n3-c2ccccc2)ccc1F
O=C(c1ccccc1)c1c(N[C@H]2CCNC2)sc2c1ccc(=O)n2-c1ccccc1
Cc1cc(C(=O)c2c(NC(=O)NC(C)(C)CO)sc3c2ccc(=O)n3-c2ccccc2)ccc1F
Cc1cccc(C(=O)c2c(NC3CCN(C(C)C)CC3)sc3c2ccc(=O)n3-c2ccccc2)c1
Cc1cccc(C(=O)c2c(NC(=O)NNS(C)(=O)=O)sc3c2ccc(=O)n3-c2ccccc2)c1
Cc1cc(C(=O)c2c(NC(=O)N3CC[C@H](N(C)C)C3)sc3c2ccc(=O)n3-c2ccccc2)ccc1F
Cc1cc(C(=O)c2c(NC3CN(C(C)C)C3)sc3c2ccc(=O)n3-c2ccccc2)ccc1F
Nc1sc2c(ccc(=O)n2-c2ccccc2)c1C(=O)c1nccs1
CCOC(=O)c1sc2c(ccc(=O)n2-c2ccccc2)c1C(=O)c1cccc(C)c1
O=C(c1ccccc1)c1c(NCCN2CCCC2)sc2c1ccc(=O)n2-c1ccccc1
N#Cc1sc2c(ccc(=O)n2-c2ccccc2Cl)c1C(=O)c1ccccc1
Nc1sc2c(ccc(=O)n2-c2ccccc2Cl)c1C(=O)c1ccccc1
N[C@H]1CC[C@H](Nc2sc3c(ccc(=O)n3-c3ccccc3)c2C(=O)c2ccccc2)CC1
CC(C)(O)CNC(=O)Nc1sc2c(ccc(=O)n2CC2CC2)c1C(=O)c1ccccc1
O=C(c1ccccc1)c1c(N[C@H]2CCCNC2)sc2c1ccc(=O)n2-c1ccccc1
CN1CCC[C@H]1C(=O)Nc1sc2c(ccc(=O)n2-c2ccccc2)c1C(=O)c1ccccc1
O=C(c1ccccc1)c1c(NCC2CNC2)sc2c1ccc(=O)n2-c1ccccc1
CN1CCC[C@@H](Nc2sc3c(ccc(=O)n3-c3ccccc3)c2C(=O)c2ccccc2)C1
Cc1cc(C(=O)c2c(N[C@@H]3CCN(C)C3)sc3c2ccc(=O)n3-c2ccccc2)ccc1F
CC(=O)Nc1sc2c(ccc(=O)n2-c2ccccc2)c1C(=O)c1cccc(F)c1
Cc1cccc(C(=O)c2c(N)sc3c2ccc(=O)n3-c2ccccc2F)c1
N#Cc1cccc(C(=O)c2c(N)sc3c2ccc(=O)n3-c2ccccc2)c1
CS(=O)(=O)Nc1sc2c(ccc(=O)n2-c2ccccc2)c1C(=O)c1ccccc1
NC(=O)CCNc1sc2c(ccc(=O)n2-c2ccccc2)c1C(=O)c1ccccc1
O=C(c1ccccc1)c1c(NC(=O)C2CCNCC2)sc2c1ccc(=O)n2-c1ccccc1Cl
CN1CCC[C@H](Nc2sc3c(ccc(=O)n3-c3ccccc3)c2C(=O)c2ccccc2)C1
CN1CC[C@H](NC(=O)Nc2sc3c(ccc(=O)n3-c3ccccc3)c2C(=O)c2ccccc2)C1
Cc1cccc(C(=O)c2c(NC(=O)NCC(C)(C)O)sc3c2ccc(=O)n3-c2ccccc2)c1
Nc1sc2c(ccc(=O)n2-c2ccccc2)c1C(=O)c1ccccc1OC(F)F
Cc1cc(C(=O)c2c(NC(=O)C3CCN(C)CC3)sc3c2ccc(=O)n3-c2ccccc2)ccc1F
COc1cccc(C(=O)c2c(N)sc3c2ccc(=O)n3-c2ccccc2)c1
Nc1sc2c(ccc(=O)n2-c2ccccc2)c1C(=O)c1cccc(OC(F)(F)F)c1
CC(=O)Nc1sc2c(ccc(=O)n2-c2ccccc2)c1C(=O)c1cccc(Br)c1
CN1CC(Nc2sc3c(ccc(=O)n3-c3c(F)cccc3F)c2C(=O)c2ccccc2)C1
Cc1cc(C(=O)c2c(NC3CNC3)sc3c2ccc(=O)n3-c2c(F)cccc2F)ccc1F
O=C(c1ccccc1)c1c(C(=O)N2CCOCC2)sc2c1ccc(=O)n2-c1ccccc1
CC(=O)Nc1sc2c(ccc(=O)n2-c2ccccc2F)c1C(=O)c1cccc(C)c1
Nc1sc2c(ccc(=O)n2-c2ccccc2)c1C(=O)c1ccccc1OC(F)(F)F
CN(C)[C@H]1CCN(C(=O)Nc2sc3c(ccc(=O)n3-c3ccccc3)c2C(=O)c2ccccc2)C1
Cc1ccc(-n2c(=O)ccc3c(C(=O)c4ccc(F)c(C)c4)c(NC4CNC4)sc32)cc1
Cc1cc(C(=O)c2c(N)sc3c2ccc(=O)n3-c2c(F)cccc2F)ccc1F
Cc1cc(C(=O)c2c(NC(=O)C3CCN(C)CC3)sc3c2ccc(=O)n3-c2ccccc2F)ccc1F
CC(=O)Nc1sc2c(ccc(=O)n2-c2ccccc2)c1C(=O)c1ccc(C)cc1
CN(C)C(=O)CNc1sc2c(ccc(=O)n2-c2ccccc2)c1C(=O)c1ccccc1
Cc1cc(C(=O)c2c(NC(=O)C3CCNCC3)sc3c2ccc(=O)n3-c2ccccc2)ccc1F
CCN1CC(Nc2sc3c(ccc(=O)n3-c3ccccc3)c2C(=O)c2ccc(F)c(C)c2)C1
CN(C)c1sc2c(ccc(=O)n2-c2ccccc2)c1C(=O)c1ccccc1
Cc1cccc(C(=O)c2c(N3CCC3)sc3c2ccc(=O)n3-c2ccccc2)c1
CC(=O)Nc1sc2c(ccc(=O)n2CC2CC2)c1C(=O)c1ccc(F)c(C)c1
O=C(c1ccccc1)c1c(N2CCOCC2)sc2c1ccc(=O)n2-c1ccccc1
CN(C)C(=O)c1sc2c(ccc(=O)n2-c2ccccc2)c1C(=O)c1ccccc1
Cc1cc(C(=O)c2c(NC(=O)NCC(C)(C)O)sc3c2ccc(=O)n3-c2ccccc2)ccc1F
